Target: T1, HIV protease (Human immunodeficiency virus type 1 group M subtype B, UniProt P04585)
T1 construct: A third viral enzyme known as protease then cleaves the polyproteins
Test: Enzymatic Assay for Determining the Inhibition Constant (Ki) of Synthetic Compounds Targeting the HIV Protease (fluorometric FRET assay)
Type: biochemical
Procedure, shortened: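 Fluorometric FRET assay following protease cleavage of an EDANS/DABCYL-labelled substrate. Initial velocities without (Vo) and with inhibitor (Vi) measured; Ki derived from the Henderson equation using inhibitor and substrate concentrations and Km.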

SMILES | Ki
Cc1ccc(S(=O)(=O)N(CC(C)C)[C@@H](CCCCNC(=O)[C@H](Cc2ccccc2)NS(=O)(=O)c2ccccc2)C(=O)O)cc1 [Example 8, Nα-Isobutyl-Nα-(4-methylbenzenesulfonyl)-Nε-(N′α-benzenesulfonyl-L-phenylalanyl)-L-lysine] | 1.9 nM
CNC(=O)N[C@@H](Cc1ccccc1)C(=O)NCCCC[C@@H](C(=O)O)N(CC(C)C)S(=O)(=O)c1ccc(C)cc1 [Example 198, Nα-Isobutyl-Nα-(4-methylbenzenesulfonyl)-Nε-(N′α-methylaminocarbonyl-L-phenylalanyl)-L-lysine] | 1.1 nM
Cc1ccc(S(=O)(=O)N[C@@H](Cc2ccccc2)C(=O)NCCCC[C@@H](CO)N(CC(C)C)S(=O)(=O)c2ccc(C)cc2)cc1 [Example 96, (2S,2′S) 2-N-Isobutyl-2-N-(4-methylbenzenesulfonyl)-6-N-[N′α-(4-methylbenzenesulfonyl)-S-phenylalanyl]-2,6-diaminohexanol] | 16 nM
